Laboratory results: patent US7598258B2, “Quinoline derivatives and quinazoline derivatives inhibiting autophosphorylation of macrophage colony stimulating factor receptor” (Kirin Beer Kabushiki Kaisha, priority 2002, dated 2009)

Target: T1, Human KDR (Homo sapiens, UniProt P35968)
T1 construct: expressed in transfected cells; host or cells: NIH3T3 cells (mouse fibroblasts)
Assay: Inhibition of KDR phosphorylation in human KDR-transfected NIH3T3 cells (ELISA)
Assay type: cell-based
Settings: for Selection ratio (KDR phosphorylation IC50 / c-fms phosphorylation IC50): class 0-3; for IC50: human KDR-transfected NIH3T3 cells, VEGF 100 ng/ml, ELISA, read-out: KDR phosphorylation 50% inhibitory concentration (IC50)
Experimental: Human KDR-transfected NIH3T3 cells (Sawano A et al., Cell Growth & Differentiation, 7, 213-221 (1996)) were cultured in a DMEM medium containing 10% fetal calf serum (purchased from GIBCO BRL) within a 5% carbon dioxide incubator until 50 to 70% confluent. The harvested cells were seeded into wells, containing the same medium, in a collagen type 1 coat 96-well flat-bottom plate in an amount of 1.5×10^4 per well, and cultured at 37° C. overnight. The medium was replaced with a 0.1% fetal calf serum-containing DMEM medium. The test compound dissolved in dimethyl sulfoxide was added to each well, and the cultivation was continued at 37° C. for additional one hr. A human recombinant vascular endothelial growth factor (hereinafter abbreviated to “VEGF”) was added to a final concentration of 100 ng/ml, followed by stimulation of cells at 37° C. for 2 min. The medium was removed, and the cells were washed with phosphate buffered saline (pH 7.4). A solubilization buffer (50 μl) (20 mM HEPES (pH 7.4), 150 mM NaCl, 0.2% Triton X-100, 10% glycerol, 5 mM sodium orthovanadylate, 5 mM disodium ethylenediaminetetraacetate, and 2 mM Na4P2O7) was then added thereto. The mixture was shaken at 4° C. for 2 hr to prepare a cell extract.
Separately, phosphate buffered saline (50 μl, pH 7.4) containing 5 μg/ml of anti-phospho-tyrosine antibody (PY20; purchased from Transduction Laboratories) was added to a microplate for ELISA (Maxisorp; purchased from NUNC), followed by standing at 4° C. overnight to be immobilized on the wells. After washing of the plate, 300 μl of a blocking solution was added, followed by standing at room temperature for 2 hr to perform blocking. After washing, the whole cell extract was transferred and was allowed to stand at 4° C. overnight. After washing, an anti-KDR antibody (purchased from Santa Cruz Biotechnology) was allowed to react at room temperature for one hr. Further, after washing, a peroxidase-labeled anti-rabbit Ig antibody (purchased from Amersham) was allowed to react at room temperature for one hr. After washing, a chromophoric substrate for peroxidase (purchased from Sumitomo Bakelite Co., Ltd.) was added thereto to initiate a reaction. After a suitable level of color development, a reaction termination solution was added to stop the reaction, and the absorbance at 450 nm was measured with a microplate reader. The KDR phosphorylation activity for each well was determined by presuming the absorbance without the addition of the test compound and with the addition of VEGF to be 100% KDR phosphorylation activity and the absorbance without the addition of the test compound and VEGF to be 0% KDR phosphorylation activity. The concentration of the test compound was varied on several levels, the KDR phosphorylation inhibitory rate was determined for each case, and the concentration of the test compound necessary for inhibiting 50% of KDR phosphorylation (IC50) was calculated.

T1 sequence (P35968 20-1356): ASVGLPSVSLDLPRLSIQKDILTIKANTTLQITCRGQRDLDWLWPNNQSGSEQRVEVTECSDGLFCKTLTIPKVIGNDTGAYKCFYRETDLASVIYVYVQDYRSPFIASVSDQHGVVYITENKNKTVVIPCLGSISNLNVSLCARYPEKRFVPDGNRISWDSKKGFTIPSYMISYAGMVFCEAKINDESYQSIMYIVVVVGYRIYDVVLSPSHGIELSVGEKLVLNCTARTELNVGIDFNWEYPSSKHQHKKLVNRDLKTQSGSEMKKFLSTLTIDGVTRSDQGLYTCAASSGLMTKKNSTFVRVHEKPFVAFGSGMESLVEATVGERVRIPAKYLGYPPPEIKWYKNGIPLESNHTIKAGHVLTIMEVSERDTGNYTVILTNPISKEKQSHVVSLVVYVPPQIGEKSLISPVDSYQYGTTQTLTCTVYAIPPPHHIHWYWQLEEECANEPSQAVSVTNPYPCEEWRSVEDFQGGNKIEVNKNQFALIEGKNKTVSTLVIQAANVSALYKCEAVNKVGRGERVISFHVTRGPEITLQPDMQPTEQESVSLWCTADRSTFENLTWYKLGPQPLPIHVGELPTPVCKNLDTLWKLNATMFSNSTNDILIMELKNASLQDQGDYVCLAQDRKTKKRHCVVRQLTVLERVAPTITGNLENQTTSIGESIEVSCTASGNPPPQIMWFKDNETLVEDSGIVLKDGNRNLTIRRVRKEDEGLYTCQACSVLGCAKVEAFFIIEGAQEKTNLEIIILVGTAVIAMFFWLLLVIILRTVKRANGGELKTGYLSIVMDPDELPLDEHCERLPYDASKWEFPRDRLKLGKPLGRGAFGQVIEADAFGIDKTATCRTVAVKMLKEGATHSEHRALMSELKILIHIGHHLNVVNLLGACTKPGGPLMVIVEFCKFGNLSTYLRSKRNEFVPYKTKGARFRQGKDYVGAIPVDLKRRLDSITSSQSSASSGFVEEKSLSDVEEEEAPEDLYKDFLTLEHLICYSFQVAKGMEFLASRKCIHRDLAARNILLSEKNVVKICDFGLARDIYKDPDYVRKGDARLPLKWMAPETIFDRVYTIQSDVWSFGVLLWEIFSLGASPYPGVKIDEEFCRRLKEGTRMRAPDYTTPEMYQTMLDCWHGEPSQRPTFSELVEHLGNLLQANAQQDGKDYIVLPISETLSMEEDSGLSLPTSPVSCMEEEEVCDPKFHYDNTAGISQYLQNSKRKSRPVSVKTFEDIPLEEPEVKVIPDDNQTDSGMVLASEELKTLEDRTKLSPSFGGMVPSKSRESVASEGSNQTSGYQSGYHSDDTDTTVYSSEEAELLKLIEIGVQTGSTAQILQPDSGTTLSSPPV

IC50 [nM] | Structure (SMILES) | Selection ratio (KDR phosphorylation IC50 / c-fms phosphorylation IC50)
296 | COc1cc2nccc(Oc3ccc(NC(=O)N[C@@H](C)c4ccc(Br)cc4)cc3)c2cc1OC [Example 34, N-[(1S)-1-(4-Bromophenyl)ethyl]-N′-{4-[(6,7-dimethoxy-4-quinolyl)oxy]phenyl}urea] | 2 (when the value was 10 or more)
38.2 | COc1cc2nccc(Oc3ccc(NC(=O)N[C@@H](C)c4ccccc4OC)cc3)c2cc1OC [Example 51, N-{4-[(6,7-Dimethoxy-4-quinolyl)oxy]phenyl}-N′-[(1S)-1-(2-methoxyphenyl)ethyl]urea] | 1 (when the value was 5 or more)
7.2 | COc1cc2nccc(Oc3ccc(NC(=O)N[C@H](C)c4ccccc4OC)cc3)c2cc1OC [Example 52, N-{4-[(6,7-Dimethoxy-4-quinolyl)oxy]phenyl}-N′-[(1R)-1-(2-methoxyphenyl)ethyl]urea] | 0 (KDR phosphorylation 50% inhibitory concentration [μM]/c-fms phosphorylation 50% inhibitory concentration [μM] was less than 5)
37.4 | COc1ccc([C@H](C)NC(=O)Nc2ccc(Oc3ccnc4cc(OC)c(OC)cc34)cc2)cc1 [Example 53, N-{4-[(6,7-Dimethoxy-4-quinolyl)oxy]phenyl}-N′-[(1S)-1-(4-methoxyphenyl)ethyl]urea] | 2 (when the value was 10 or more)
574 | COc1ccc([C@@H](C)NC(=O)Nc2ccc(Oc3ccnc4cc(OC)c(OC)cc34)cc2)cc1 [Example 54, N-{4-[(6,7-Dimethoxy-4-quinolyl)oxy]phenyl}-N′-[(1R)-1-(4-methoxyphenyl)ethyl]urea] | 1 (when the value was 5 or more)
1.6 | COc1cc2nccc(Oc3ccc(NC(=O)N[C@H](C)c4cccc(Br)c4)c(Cl)c3)c2cc1OC [Example 55, N-[(1R)-1-(3-Bromophenyl)ethyl]-N′-{2-chloro-4-[(6,7-dimethoxy-4-quinolyl)oxy]phenyl}urea] | 0 (KDR phosphorylation 50% inhibitory concentration [μM]/c-fms phosphorylation 50% inhibitory concentration [μM] was less than 5)
9.6 | COc1cc2nccc(Oc3cc(C)c(NC(=O)N[C@H](C)c4cccc(Br)c4)cc3C)c2cc1OC [Example 56, N-[(1R)-1-(3-Bromophenyl)ethyl]-N′-{4-[(6,7-dimethoxy-4-quinolyl)oxy]-2,5-dimethylphenyl}urea] | 0 (KDR phosphorylation 50% inhibitory concentration [μM]/c-fms phosphorylation 50% inhibitory concentration [μM] was less than 5)
3.6 | COc1cc2nccc(Oc3ccc(NC(=O)N[C@H](C)c4cccc(Br)c4)cc3Cl)c2cc1OC [Example 57, N-[(1R)-1-(3-Bromophenyl)ethyl]-N′-{3-chloro-4-[(6,7-dimethoxy-4-quinolyl)oxy]phenyl}urea] | 0 (KDR phosphorylation 50% inhibitory concentration [μM]/c-fms phosphorylation 50% inhibitory concentration [μM] was less than 5)
2.1 | COc1cc2nccc(Oc3ccc(NC(=O)N[C@H](C)c4cccc(Br)c4)c(C)c3)c2cc1OC [Example 58, N-[(1R)-1-(3-Bromophenyl)ethyl]-N′-{4-[(6,7-dimethoxy-4-quinolyl)oxy]-2-methylphenyl}urea] | 0 (KDR phosphorylation 50% inhibitory concentration [μM]/c-fms phosphorylation 50% inhibitory concentration [μM] was less than 5)
8.7 | COc1cc(Oc2ccnc3cc(OC)c(OC)cc23)ccc1NC(=O)N[C@H](C)c1cccc(Br)c1 [Example 59, N-[(1R)-1-(3-Bromophenyl)ethyl]-N′-{4-[(6,7-dimethoxy-4-quinolyl)oxy]-2-methoxyphenyl}urea] | 0 (KDR phosphorylation 50% inhibitory concentration [μM]/c-fms phosphorylation 50% inhibitory concentration [μM] was less than 5)
1.9 | COc1cc2nccc(Oc3ccc(NC(=O)N[C@H](C)c4cccc(Br)c4)c(C(F)(F)F)c3)c2cc1OC [Example 60, N-[(1R)-1-(3-Bromophenyl)ethyl]-N′-[4-[(6,7-dimethoxy-4-quinolyl)oxy]-2-(trifluoromethyl)phenyl]urea] | 0 (KDR phosphorylation 50% inhibitory concentration [μM]/c-fms phosphorylation 50% inhibitory concentration [μM] was less than 5)

The next lines start with the compound.

Structure (SMILES) | IC50 [nM] | Selection ratio (KDR phosphorylation IC50 / c-fms phosphorylation IC50)
COc1cc2nccc(Oc3ccc(NC(=O)NC(C)c4ccc(F)cc4)c(C)c3C)c2cc1OC (stereo not shown) [Example 25, N-{4-[(6,7-Dimethoxy-4-quinolyl)oxy]-2,3-dimethylphenyl}-N′-[1-(4-fluorophenyl)ethyl]urea] | 3.5 | 0 (KDR phosphorylation 50% inhibitory concentration [μM]/c-fms phosphorylation 50% inhibitory concentration [μM] was less than 5)
COc1cc2nccc(Oc3ccc(NC(=O)N[C@@H](C)c4ccc(F)cc4)c(C)c3C)c2cc1OC [Example 26, N-{4-[(6,7-Dimethoxy-4-quinolyl)oxy]-2,3-dimethylphenyl}-N′-[(1S)-1-(4-fluorophenyl)ethyl]urea] | 155 | 1 (when the value was 5 or more)
COc1cc2nccc(Oc3ccc(NC(=O)N[C@H](C)c4ccc(F)cc4)c(C)c3C)c2cc1OC [Example 27, N-{4-[(6,7-Dimethoxy-4-quinolyl)oxy]-2,3-dimethylphenyl}-N′-[(1R)-1-(4-fluorophenyl)ethyl]urea] | 2 | 0 (KDR phosphorylation 50% inhibitory concentration [μM]/c-fms phosphorylation 50% inhibitory concentration [μM] was less than 5)
COc1cc2nccc(Oc3ccc(NC(=O)NC(C)c4ccc(F)cc4)c(F)c3)c2cc1OC (stereo not shown) [Example 28, N-{4-[(6,7-Dimethoxy-4-quinolyl)oxy]-2-fluorophenyl}-N′-[1-(4-fluorophenyl)ethyl]urea] | < 1 | 0 (KDR phosphorylation 50% inhibitory concentration [μM]/c-fms phosphorylation 50% inhibitory concentration [μM] was less than 5)
COc1cc2nccc(Oc3ccc(NC(=O)N[C@@H](C)c4ccc(F)cc4)c(F)c3)c2cc1OC [Example 29, N-{4-[(6,7-Dimethoxy-4-quinolyl)oxy]-2-fluorophenyl}-N′-[(1S)-1-(4-fluorophenyl)ethyl]urea] | 27.3 | 2 (when the value was 10 or more)
COc1cc2nccc(Oc3ccc(NC(=O)N[C@H](C)c4ccc(F)cc4)c(F)c3)c2cc1OC [Example 30, N-{4-[(6,7-Dimethoxy-4-quinolyl)oxy]-2-fluorophenyl}-N′-[(1R)-1-(4-fluorophenyl)ethyl]urea] | < 1 | 0 (KDR phosphorylation 50% inhibitory concentration [μM]/c-fms phosphorylation 50% inhibitory concentration [μM] was less than 5)
COc1cc2nccc(Oc3ccc(NC(=O)NC(C)c4ccc(F)cc4)cc3F)c2cc1OC (stereo not shown) [Example 31, N-{4-[(6,7-Dimethoxy-4-quinolyl)oxy]-3-fluorophenyl}-N′-[1-(4-fluorophenyl)ethyl]urea] | 1 | 0 (KDR phosphorylation 50% inhibitory concentration [μM]/c-fms phosphorylation 50% inhibitory concentration [μM] was less than 5)
COc1cc2nccc(Oc3ccc(NC(=O)N[C@@H](C)c4ccc(F)cc4)cc3F)c2cc1OC [Example 32, N-{4-[(6,7-Dimethoxy-4-quinolyl)oxy]-3-fluorophenyl}-N′-[(1S)-1-(4-fluorophenyl)ethyl]urea] | 29.4 | 1 (when the value was 5 or more)
COc1cc2nccc(Oc3ccc(NC(=O)N[C@H](C)c4ccc(F)cc4)cc3F)c2cc1OC [Example 33, N-{4-[(6,7-Dimethoxy-4-quinolyl)oxy]-3-fluorophenyl}-N′-[(1R)-1-(4-fluorophenyl)ethyl]urea] | < 1 | 0 (KDR phosphorylation 50% inhibitory concentration [μM]/c-fms phosphorylation 50% inhibitory concentration [μM] was less than 5)
